Assays:
barnyardgrass [1] = experiment: Test D flooded paddy test; format: in vivo, Echinochloa crus-galli; settings: 250 g ai/ha, applied to paddy water, visual rating after 13 to 14 days, scale 0 to 100 (0 no effect, 100 complete control)
Procedure, shortened: (§1)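 Seedlings reached the 2-leaf stage, then pots were flooded to 3 cm over the soil surface. Compound was applied into the water, depth was maintained, and plants stayed in the greenhouse 13 to 14 days before visual scoring (0–100) relative to controls.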

ryegrass, Italian [2] = experiment: Test C postemergence; format: in vivo, Lolium multiflorum; settings: 10 days, 0 to 100 scale (0 no effect, 100 complete control)
Procedure, shortened: (§2)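 Soil-applied (pre) and foliar (post, 1–2 leaf, 2–10 cm) sprays; surfactant-containing non-phytotoxic solvent vehicle; loam/sand substrate. Readout: visual % control at 10 d, greenhouse, versus untreated.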

kochia [3] = experiment: Test C postemergence; format: in vivo, Bassia scoparia; settings: 10 days, 0 to 100 scale (0 no effect, 100 complete control)
Procedure, shortened: as §2

ducksalad = experiment: Test D flooded paddy test; format: in vivo, Heteranthera limosa; settings: 250 g ai/ha, applied to paddy water, visual rating after 13 to 14 days, scale 0 to 100 (0 no effect, 100 complete control)
Procedure, shortened: as §1

soybean [4] = experiment: Test C postemergence; format: in vivo, Glycine max; settings: 10 days, 0 to 100 scale (0 no effect, 100 complete control)
Procedure, shortened: as §2

green foxtail [5] = experiment: Test C postemergence; format: in vivo, Setaria viridis; settings: 10 days, 0 to 100 scale (0 no effect, 100 complete control)
Procedure, shortened: as §2

wheat [6] = experiment: Test C preemergence; format: in vivo, Triticum aestivum; settings: for Wheat plant response rating: 500 g ai/ha, preemergence, 0 to 100 scale (0 no effect, 100 complete control); for Plant response rating, Wheat: Preemergence, 125 g ai/ha, 0 to 100 scale, 0 no effect, 100 complete control
Procedure, shortened: as §2

soybean [7] = experiment: Test C preemergence; format: in vivo, Glycine max; settings: for Soybean plant response rating: 500 g ai/ha, preemergence, 0 to 100 scale (0 no effect, 100 complete control); for Plant response rating, Soybean: Preemergence, 125 g ai/ha, 0 to 100 scale, 0 no effect, 100 complete control
Procedure, shortened: as §2

corn [8] = experiment: Test C preemergence; format: in vivo, Zea mays; settings: for Corn plant response rating: 500 g ai/ha, preemergence, 0 to 100 scale (0 no effect, 100 complete control); for Plant response rating, Corn: Preemergence, 125 g ai/ha, 0 to 100 scale, 0 no effect, 100 complete control
Procedure, shortened: as §2

ragweed [9] = experiment: Test C preemergence; format: in vivo, Ambrosia artemisiifolia; settings: for Ragweed plant response rating: 500 g ai/ha, preemergence, 0 to 100 scale (0 no effect, 100 complete control); for Plant response rating, Ragweed: Preemergence, 125 g ai/ha, 0 to 100 scale, 0 no effect, 100 complete control
Procedure, shortened: as §2

wheat [10] = experiment: Test C postemergence; format: in vivo, Triticum aestivum; settings: 10 days, 0 to 100 scale (0 no effect, 100 complete control)
Procedure, shortened: as §2

galium = experiment: Test C postemergence; format: in vivo, Galium aparine; settings: 10 days, 0 to 100 scale (0 no effect, 100 complete control)
Procedure, shortened: as §2

rice = experiment: Test D flooded paddy test; format: in vivo, Oryza sativa; settings: 250 g ai/ha, applied to paddy water, visual rating after 13 to 14 days, scale 0 to 100 (0 no effect, 100 complete control)
Procedure, shortened: as §1

green foxtail [11] = experiment: Test C preemergence; format: in vivo, Setaria viridis; settings: for Foxtail, Green plant response rating: 500 g ai/ha, preemergence, 0 to 100 scale (0 no effect, 100 complete control); for Plant response rating, Foxtail, Green: Preemergence, 125 g ai/ha, 0 to 100 scale, 0 no effect, 100 complete control
Procedure, shortened: as §2

barnyardgrass [12] = experiment: Test C postemergence; format: in vivo, Echinochloa crusgalli; settings: 10 days, 0 to 100 scale (0 no effect, 100 complete control)
Procedure, shortened: as §2

pigweed, palmer [13] = experiment: Test C preemergence; format: in vivo, Amaranthus palmeri; settings: for Pigweed, Palmer plant response rating: 500 g ai/ha, preemergence, 0 to 100 scale (0 no effect, 100 complete control); for Plant response rating, Pigweed, Palmer: Preemergence, 125 g ai/ha, 0 to 100 scale, 0 no effect, 100 complete control
Procedure, shortened: as §2

barnyardgrass [14] = experiment: Test C preemergence; format: in vivo, Echinochloa crusgalli; settings: for Barnyardgrass plant response rating: 500 g ai/ha, preemergence, 0 to 100 scale (0 no effect, 100 complete control); for Plant response rating, Barnyardgrass: Preemergence, 125 g ai/ha, 0 to 100 scale, 0 no effect, 100 complete control
Procedure, shortened: as §2

blackgrass [15] = experiment: Test C preemergence; format: in vivo, Alopecurus myosuroides; settings: for Blackgrass plant response rating: 500 g ai/ha, preemergence, 0 to 100 scale (0 no effect, 100 complete control); for Plant response rating, Blackgrass: Preemergence, 125 g ai/ha, 0 to 100 scale, 0 no effect, 100 complete control
Procedure, shortened: as §2

ragweed [16] = experiment: Test C postemergence; format: in vivo, Ambrosia artemisiifolia; settings: 10 days, 0 to 100 scale (0 no effect, 100 complete control)
Procedure, shortened: as §2

horseweed = experiment: Test C postemergence; format: in vivo, Erigeron canadensis; settings: 10 days, 0 to 100 scale (0 no effect, 100 complete control)
Procedure, shortened: as §2

pigweed, palmer [17] = experiment: Test C postemergence; format: in vivo, Amaranthus palmeri; settings: 10 days, 0 to 100 scale (0 no effect, 100 complete control)
Procedure, shortened: as §2

oat, wild [18] = experiment: Test C preemergence; format: in vivo, Avena fatua; settings: for Oat, Wild plant response rating: 500 g ai/ha, preemergence, 0 to 100 scale (0 no effect, 100 complete control); for Plant response rating, Oat, Wild: Preemergence, 125 g ai/ha, 0 to 100 scale, 0 no effect, 100 complete control
Procedure, shortened: as §2

blackgrass [19] = experiment: Test C postemergence; format: in vivo, Alopecurus myosuroides; settings: 10 days, 0 to 100 scale (0 no effect, 100 complete control)
Procedure, shortened: as §2

oat, wild [20] = experiment: Test C postemergence; format: in vivo, Avena fatua; settings: 10 days, 0 to 100 scale (0 no effect, 100 complete control)
Procedure, shortened: as §2

kochia [21] = experiment: Test C preemergence; format: in vivo, Bassia scoparia; settings: for Kochia plant response rating: 500 g ai/ha, preemergence, 0 to 100 scale (0 no effect, 100 complete control); for Plant response rating, Kochia: Preemergence, 125 g ai/ha, 0 to 100 scale, 0 no effect, 100 complete control
Procedure, shortened: as §2

sedge, umbrella = experiment: Test D flooded paddy test; format: in vivo, Cyperus difformis; settings: 250 g ai/ha, applied to paddy water, visual rating after 13 to 14 days, scale 0 to 100 (0 no effect, 100 complete control)
Procedure, shortened: as §1

corn [22] = experiment: Test C postemergence; format: in vivo, Zea mays; settings: 10 days, 0 to 100 scale (0 no effect, 100 complete control)
Procedure, shortened: as §2

ryegrass, Italian [23] = experiment: Test C preemergence; format: in vivo, Lolium multiflorum; settings: for Ryegrass, Italian plant response rating: 500 g ai/ha, preemergence, 0 to 100 scale (0 no effect, 100 complete control); for Plant response rating, Ryegrass, Italian: Preemergence, 125 g ai/ha, 0 to 100 scale, 0 no effect, 100 complete control
Procedure, shortened: as §2

Cc1cccc2c1O[C@@H](C)CN2C(=O)c1cc(-n2cnc(C(C)C)n2)cc2c1CCO2 [Compound 392]
60: Plant response rating, Foxtail, Green (green foxtail [5]; Postemergence, 125 g ai/ha) | Wheat plant response rating (wheat [6]) | Plant response rating, Wheat (wheat [10]; 500 g ai/ha, postemergence) | Plant response rating, Horseweed (horseweed; Postemergence, 125 g ai/ha)
70: Corn plant response rating (corn [8]) | Plant response rating, Blackgrass (blackgrass [15]) | Plant response rating, Oat, Wild (oat, wild [20]; Postemergence, 125 g ai/ha)
20: Plant response rating, Wheat (wheat [6])
90: Plant response rating, Kochia (kochia [3]; 500 g ai/ha, postemergence) | Plant response rating, Kochia (kochia [3]; Postemergence, 125 g ai/ha) | Plant response rating, Foxtail, Green (green foxtail [5]; 500 g ai/ha, postemergence) | Plant response rating, Soybean (soybean [7]) | Plant response rating, Barnyardgrass (barnyardgrass [14]) | Plant response rating, Ragweed (ragweed [16]; 500 g ai/ha, postemergence) | Plant response rating, Ragweed (ragweed [16]; Postemergence, 125 g ai/ha) | Plant response rating, Horseweed (horseweed; 500 g ai/ha, postemergence) | Oat, Wild plant response rating (oat, wild [18]) | Plant response rating, Blackgrass (blackgrass [19]; 500 g ai/ha, postemergence) | Plant response rating, Oat, Wild (oat, wild [20]; 500 g ai/ha, postemergence) | Kochia plant response rating (kochia [21]) | Plant response rating, Kochia (kochia [21]) | Plant response rating, Ryegrass, Italian (ryegrass, Italian [23])
40: Plant response rating, Barnyardgrass (Flood) (barnyardgrass [1])
0: Plant response rating, Rice (Flood) (rice)
100: Plant response rating, Ryegrass, Italian (ryegrass, Italian [2]; 500 g ai/ha, postemergence) | Plant response rating, Soybean (soybean [4]; 500 g ai/ha, postemergence) | Plant response rating, Soybean (soybean [4]; Postemergence, 125 g ai/ha) | Soybean plant response rating (soybean [7]) | Plant response rating, Galium (galium; 500 g ai/ha, postemergence) | Plant response rating, Galium (galium; Postemergence, 125 g ai/ha) | Foxtail, Green plant response rating (green foxtail [11]) | Plant response rating, Foxtail, Green (green foxtail [11]) | Pigweed, Palmer plant response rating (pigweed, palmer [13]) | Plant response rating, Pigweed, Palmer (pigweed, palmer [13]) | Barnyardgrass plant response rating (barnyardgrass [14]) | Plant response rating, Pigweed, Palmer (pigweed, palmer [17]; 500 g ai/ha, postemergence) | Plant response rating, Pigweed, Palmer (pigweed, palmer [17]; Postemergence, 125 g ai/ha) | Ryegrass, Italian plant response rating (ryegrass, Italian [23])
30: Plant response rating, Corn (corn [8]) | Plant response rating, Corn (corn [22]; Postemergence, 125 g ai/ha)
65: Plant response rating, Ducksalad (Flood) (ducksalad) | Plant response rating, Sedge, Umbrella (Flood) (sedge, umbrella)
50: Plant response rating, Wheat (wheat [10]; Postemergence, 125 g ai/ha) | Plant response rating, Barnyardgrass (barnyardgrass [12]; Postemergence, 125 g ai/ha) | Plant response rating, Oat, Wild (oat, wild [18])
80: Plant response rating, Ryegrass, Italian (ryegrass, Italian [2]; Postemergence, 125 g ai/ha) | Ragweed plant response rating (ragweed [9]) | Plant response rating, Ragweed (ragweed [9]) | Plant response rating, Barnyardgrass (barnyardgrass [12]; 500 g ai/ha, postemergence) | Blackgrass plant response rating (blackgrass [15]) | Plant response rating, Blackgrass (blackgrass [19]; Postemergence, 125 g ai/ha) | Plant response rating, Corn (corn [22]; 500 g ai/ha, postemergence)

Cc1ccc(-n2cnc(C(C)C)n2)cc1C(=O)N1CC(C(F)(F)F)Oc2c(Cl)cccc21 (centres unmarked) [Compound 354]
60: Plant response rating, Wheat (wheat [10]; 500 g ai/ha, postemergence) | Plant response rating, Oat, Wild (oat, wild [20]; Postemergence, 125 g ai/ha) | Plant response rating, Corn (corn [22]; 500 g ai/ha, postemergence)
70: Plant response rating, Ryegrass, Italian (ryegrass, Italian [2]; 500 g ai/ha, postemergence) | Plant response rating, Barnyardgrass (barnyardgrass [12]; 500 g ai/ha, postemergence) | Plant response rating, Ragweed (ragweed [16]; 500 g ai/ha, postemergence)
100: Plant response rating, Soybean (soybean [4]; 500 g ai/ha, postemergence) | Plant response rating, Soybean (soybean [4]; Postemergence, 125 g ai/ha) | Soybean plant response rating (soybean [7]) | Ragweed plant response rating (ragweed [9]) | Plant response rating, Galium (galium; 500 g ai/ha, postemergence) | Plant response rating, Galium (galium; Postemergence, 125 g ai/ha) | Foxtail, Green plant response rating (green foxtail [11]) | Plant response rating, Foxtail, Green (green foxtail [11]) | Pigweed, Palmer plant response rating (pigweed, palmer [13]) | Plant response rating, Pigweed, Palmer (pigweed, palmer [13]) | Barnyardgrass plant response rating (barnyardgrass [14]) | Plant response rating, Pigweed, Palmer (pigweed, palmer [17]; 500 g ai/ha, postemergence) | Ryegrass, Italian plant response rating (ryegrass, Italian [23])
30: Plant response rating, Wheat (wheat [6]) | Plant response rating, Wheat (wheat [10]; Postemergence, 125 g ai/ha) | Plant response rating, Barnyardgrass (barnyardgrass [12]; Postemergence, 125 g ai/ha) | Plant response rating, Horseweed (horseweed; Postemergence, 125 g ai/ha)
80: Plant response rating, Kochia (kochia [3]; Postemergence, 125 g ai/ha) | Plant response rating, Blackgrass (blackgrass [15]) | Plant response rating, Horseweed (horseweed; 500 g ai/ha, postemergence) | Plant response rating, Pigweed, Palmer (pigweed, palmer [17]; Postemergence, 125 g ai/ha) | Plant response rating, Oat, Wild (oat, wild [18]) | Kochia plant response rating (kochia [21])
20: Plant response rating, Ryegrass, Italian (ryegrass, Italian [2]; Postemergence, 125 g ai/ha) | Plant response rating, Corn (corn [8]) | Plant response rating, Blackgrass (blackgrass [19]; 500 g ai/ha, postemergence) | Plant response rating, Corn (corn [22]; Postemergence, 125 g ai/ha)
40: Plant response rating, Foxtail, Green (green foxtail [5]; Postemergence, 125 g ai/ha) | Corn plant response rating (corn [8])
0: Plant response rating, Barnyardgrass (Flood) (barnyardgrass [1]) | Plant response rating, Ducksalad (Flood) (ducksalad) | Plant response rating, Rice (Flood) (rice) | Plant response rating, Blackgrass (blackgrass [19]; Postemergence, 125 g ai/ha) | Plant response rating, Kochia (kochia [21]) | Plant response rating, Sedge, Umbrella (Flood) (sedge, umbrella)
10: Plant response rating, Ragweed (ragweed [9])
50: Plant response rating, Soybean (soybean [7]) | Plant response rating, Ragweed (ragweed [16]; Postemergence, 125 g ai/ha)
90: Plant response rating, Kochia (kochia [3]; 500 g ai/ha, postemergence) | Plant response rating, Foxtail, Green (green foxtail [5]; 500 g ai/ha, postemergence) | Wheat plant response rating (wheat [6]) | Plant response rating, Barnyardgrass (barnyardgrass [14]) | Blackgrass plant response rating (blackgrass [15]) | Oat, Wild plant response rating (oat, wild [18]) | Plant response rating, Oat, Wild (oat, wild [20]; 500 g ai/ha, postemergence) | Plant response rating, Ryegrass, Italian (ryegrass, Italian [23])
